ChEMBL document CHEMBL4330091, “The discovery and optimization of benzimidazoles as selective NaV1.8 blockers for the treatment of pain” (Bioorg Med Chem, 2019)
Values after ≈ are worked out from the molar mass of the structure shown. Each block holds one compound with its values, some of them ahead of it.

Tests used:
[1] = target: Sodium channel protein type 10 subunit alpha (Homo sapiens, UniProt Q9Y5Y9); test: Inhibition of human Nav1.8 expressed in HEK cells by patch-clamp electrophysiology method; format: cell-based
[2] = Dissociation constant, pKa of the compound; format: physicochemical
[3] = target: Sodium channel protein type 5 subunit alpha (Homo sapiens, UniProt Q14524); test: Inhibition of human Nav1.5
[4] = Stability in human hepatocytes assessed per million cells; format: ADME, cell-based, Hepatocyte
[5] = target: Voltage-gated inwardly rectifying potassium channel KCNH2 (Homo sapiens, UniProt Q12809); test: Inhibition of human ERG
[6] = Apparent permeability from apical to basolateral in RRCK cells; format: ADME, cell-based, Canis lupus familiaris, MDCKII-LE; settings: dog, MDCK
[7] = Stability in human liver microsomes assessed per mg protein; format: ADME, Microsome
Nav1.5 (SCN5A) = Nav1.5 (SCN5A) (Homo sapiens, UniProt Q14524); test: Inhibition of human Nav1.5 at 10 uM
[8] = Lipophilicity, log D of the compound; format: physicochemical; settings: octanol/water
[9] = target: T1, Gamma-aminobutyric acid receptor subunit alpha-1/gamma-2 (Homo sapiens, UniProt P14867+P18507); test: Inhibition of GABA receptor alpha1gamma2 (unknown origin); format: protein-complex assay
T1 sequence (P14867 whole entry): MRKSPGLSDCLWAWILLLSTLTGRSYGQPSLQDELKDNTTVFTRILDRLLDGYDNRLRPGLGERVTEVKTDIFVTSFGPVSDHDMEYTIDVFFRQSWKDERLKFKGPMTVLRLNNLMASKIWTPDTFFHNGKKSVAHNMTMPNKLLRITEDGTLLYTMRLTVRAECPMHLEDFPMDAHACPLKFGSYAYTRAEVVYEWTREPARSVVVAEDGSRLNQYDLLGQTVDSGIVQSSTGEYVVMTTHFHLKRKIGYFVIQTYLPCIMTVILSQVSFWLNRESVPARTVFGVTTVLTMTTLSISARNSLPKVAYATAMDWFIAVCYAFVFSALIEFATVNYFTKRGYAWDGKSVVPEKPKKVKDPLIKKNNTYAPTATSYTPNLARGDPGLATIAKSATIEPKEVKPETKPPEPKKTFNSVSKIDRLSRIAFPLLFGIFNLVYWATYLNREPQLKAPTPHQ
T1 sequence (P18507 whole entry): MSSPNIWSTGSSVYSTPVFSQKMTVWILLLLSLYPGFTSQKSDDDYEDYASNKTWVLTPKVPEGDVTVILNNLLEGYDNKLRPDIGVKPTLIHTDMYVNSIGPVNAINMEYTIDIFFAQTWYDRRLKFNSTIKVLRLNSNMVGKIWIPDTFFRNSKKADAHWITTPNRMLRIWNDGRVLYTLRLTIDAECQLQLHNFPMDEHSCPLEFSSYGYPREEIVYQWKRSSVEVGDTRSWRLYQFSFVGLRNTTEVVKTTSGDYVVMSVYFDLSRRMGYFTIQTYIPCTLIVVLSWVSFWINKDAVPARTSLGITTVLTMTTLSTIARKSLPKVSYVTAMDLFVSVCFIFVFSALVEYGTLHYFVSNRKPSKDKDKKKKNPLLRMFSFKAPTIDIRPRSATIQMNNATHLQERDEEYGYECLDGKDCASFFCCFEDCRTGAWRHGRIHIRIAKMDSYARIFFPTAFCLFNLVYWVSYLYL

[10] = target: Potassium voltage-gated channel subfamily A member 1 (Homo sapiens, UniProt Q09470); test: Inhibition of Kv1.1 (unknown origin)
[11] = target: Potassium voltage-gated channel subfamily A member 2 (Homo sapiens, UniProt P16389); test: Inhibition of Kv1.2 (unknown origin)
[12] = target: T2, Potassium voltage-gated channel subfamily KQT member 1 (Homo sapiens, UniProt P51787); test: Inhibition of KvLQT1 (unknown origin)
T2 sequence (P51787 whole entry): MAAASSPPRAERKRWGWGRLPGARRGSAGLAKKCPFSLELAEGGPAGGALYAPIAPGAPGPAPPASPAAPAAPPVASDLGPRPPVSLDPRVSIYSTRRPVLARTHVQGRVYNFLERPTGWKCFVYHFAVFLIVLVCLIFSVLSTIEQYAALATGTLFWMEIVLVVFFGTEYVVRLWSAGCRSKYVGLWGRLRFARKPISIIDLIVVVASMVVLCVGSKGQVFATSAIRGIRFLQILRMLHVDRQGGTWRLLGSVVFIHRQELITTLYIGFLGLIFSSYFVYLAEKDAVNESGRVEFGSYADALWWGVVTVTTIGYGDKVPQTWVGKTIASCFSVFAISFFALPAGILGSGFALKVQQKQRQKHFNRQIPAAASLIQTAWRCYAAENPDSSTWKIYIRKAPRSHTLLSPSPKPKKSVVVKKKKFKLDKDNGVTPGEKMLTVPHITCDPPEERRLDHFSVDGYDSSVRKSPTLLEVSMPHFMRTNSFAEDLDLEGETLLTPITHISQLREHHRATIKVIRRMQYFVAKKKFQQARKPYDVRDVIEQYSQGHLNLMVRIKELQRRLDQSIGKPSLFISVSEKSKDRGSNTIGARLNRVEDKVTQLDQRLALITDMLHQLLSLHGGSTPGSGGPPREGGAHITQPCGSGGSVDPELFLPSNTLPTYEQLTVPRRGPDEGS

[13] = target: Potassium voltage-gated channel subfamily A member 5 (Homo sapiens, UniProt P22460); test: Inhibition of Kv1.5 (unknown origin)
[14] = AUC (0 to infinity) in rat at 1 mg/kg, iv or 3 mg/kg, po; format: ADME, organism-based; settings: in vivo
[15] = target: Voltage-gated T-type calcium channel (Homo sapiens, UniProt O95180+O43497+Q9P0X4); test: Inhibition of T-type calcium channel (unknown origin); format: protein assay
[16] = Solubility of the compound at pH 7.4; format: physicochemical; settings: buffer
[17] = Half life in rat at 1 mg/kg, iv or 3 mg/kg, po; format: ADME, organism-based; settings: in vivo
[18] = Unbound clearance in rat at 1 mg/kg, iv or 3 mg/kg, po; format: ADME, organism-based; settings: in vivo
[19] = target: Sodium channel protein type 4 subunit alpha (Homo sapiens, UniProt P35499); test: Inhibition of human Nav1.4
[20] = Volume of distribution in rat at 1 mg/kg, iv or 3 mg/kg, po; format: ADME, organism-based; settings: in vivo
[21] = Oral bioavailability in rat at 3 mg/kg; format: ADME, organism-based; settings: in vivo
[22] = target: Sodium channel protein type 9 subunit alpha (Homo sapiens, UniProt Q15858); test: Inhibition of human Nav1.7
[23] = target: Sodium channel protein type 2 subunit alpha (Homo sapiens, UniProt Q99250); test: Inhibition of human Nav1.2
[24] = Plasma clearance in rat at 1 mg/kg, iv or 3 mg/kg, po; format: ADME, organism-based
[25] = target: Sodium channel protein type 3 subunit alpha (Homo sapiens, UniProt Q9NY46); test: Inhibition of human Nav1.3
[26] = target: Sodium channel protein type 1 subunit alpha (Homo sapiens, UniProt P35498); test: Inhibition of human Nav1.1
[27] = target: Small conductance calcium-activated potassium channel protein 2 (Homo sapiens, UniProt Q9H2S1); test: Inhibition of SK2 (unknown origin)
[28] = target: Voltage-gated L-type calcium channel (Homo sapiens, UniProt Q13936+Q13698+Q01668+O60840); test: Inhibition of L-type calcium channel (unknown origin); format: protein assay
[29] = target: Sodium channel protein type 8 subunit alpha (Homo sapiens, UniProt Q9UQD0); test: Inhibition of human Nav1.6

Sodium channel protein type 10 subunit alpha, sequence (Q9Y5Y9 whole entry): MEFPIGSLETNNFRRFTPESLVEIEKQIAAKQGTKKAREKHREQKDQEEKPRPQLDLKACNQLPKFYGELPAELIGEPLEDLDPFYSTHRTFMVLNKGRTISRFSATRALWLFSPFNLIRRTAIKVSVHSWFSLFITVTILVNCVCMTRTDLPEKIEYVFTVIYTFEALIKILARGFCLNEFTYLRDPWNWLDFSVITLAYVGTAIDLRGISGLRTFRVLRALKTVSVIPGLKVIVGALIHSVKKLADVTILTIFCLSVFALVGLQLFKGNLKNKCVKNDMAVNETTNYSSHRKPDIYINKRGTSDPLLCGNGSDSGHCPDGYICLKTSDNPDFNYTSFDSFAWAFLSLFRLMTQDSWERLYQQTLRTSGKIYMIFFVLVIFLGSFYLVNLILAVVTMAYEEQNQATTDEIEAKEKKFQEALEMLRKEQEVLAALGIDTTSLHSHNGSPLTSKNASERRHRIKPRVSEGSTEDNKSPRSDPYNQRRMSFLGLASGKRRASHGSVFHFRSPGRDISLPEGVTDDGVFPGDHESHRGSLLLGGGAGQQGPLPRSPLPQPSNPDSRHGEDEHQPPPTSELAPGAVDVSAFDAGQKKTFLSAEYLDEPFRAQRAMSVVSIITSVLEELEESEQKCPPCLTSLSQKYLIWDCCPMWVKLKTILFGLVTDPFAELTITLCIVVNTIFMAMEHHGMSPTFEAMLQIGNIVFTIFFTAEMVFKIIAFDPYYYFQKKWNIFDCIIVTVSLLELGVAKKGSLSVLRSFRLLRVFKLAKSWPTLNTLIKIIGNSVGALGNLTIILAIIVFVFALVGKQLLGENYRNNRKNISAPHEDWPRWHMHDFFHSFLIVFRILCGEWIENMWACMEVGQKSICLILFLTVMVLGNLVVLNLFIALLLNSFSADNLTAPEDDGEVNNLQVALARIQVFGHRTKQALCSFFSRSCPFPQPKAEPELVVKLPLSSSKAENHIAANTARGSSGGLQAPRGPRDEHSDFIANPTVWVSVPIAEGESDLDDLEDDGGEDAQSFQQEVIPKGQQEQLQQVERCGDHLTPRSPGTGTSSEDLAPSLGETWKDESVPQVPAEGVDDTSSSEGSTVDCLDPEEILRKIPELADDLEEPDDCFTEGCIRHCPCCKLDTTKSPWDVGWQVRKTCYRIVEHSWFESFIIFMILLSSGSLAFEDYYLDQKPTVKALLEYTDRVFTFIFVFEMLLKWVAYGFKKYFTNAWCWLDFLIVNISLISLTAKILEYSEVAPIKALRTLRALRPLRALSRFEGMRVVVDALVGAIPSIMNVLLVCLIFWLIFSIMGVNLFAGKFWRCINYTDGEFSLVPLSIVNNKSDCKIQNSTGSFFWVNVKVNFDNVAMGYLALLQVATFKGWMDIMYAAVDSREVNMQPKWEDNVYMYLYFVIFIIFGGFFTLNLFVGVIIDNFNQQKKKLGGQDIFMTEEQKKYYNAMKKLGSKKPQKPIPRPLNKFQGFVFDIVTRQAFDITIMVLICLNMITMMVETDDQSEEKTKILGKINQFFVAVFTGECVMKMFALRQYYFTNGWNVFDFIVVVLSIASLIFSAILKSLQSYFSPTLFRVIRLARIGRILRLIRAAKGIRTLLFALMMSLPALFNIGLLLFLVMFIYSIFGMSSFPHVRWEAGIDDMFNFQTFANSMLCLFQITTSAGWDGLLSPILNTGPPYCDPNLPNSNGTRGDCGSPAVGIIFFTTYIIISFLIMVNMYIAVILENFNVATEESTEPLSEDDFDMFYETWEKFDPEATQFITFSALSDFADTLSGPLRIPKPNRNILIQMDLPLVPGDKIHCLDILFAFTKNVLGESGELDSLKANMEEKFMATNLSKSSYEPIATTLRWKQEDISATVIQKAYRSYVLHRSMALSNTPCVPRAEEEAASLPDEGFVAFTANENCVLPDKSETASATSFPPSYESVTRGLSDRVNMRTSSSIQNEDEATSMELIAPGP
Sodium channel protein type 5 subunit alpha, sequence (Q14524 whole entry): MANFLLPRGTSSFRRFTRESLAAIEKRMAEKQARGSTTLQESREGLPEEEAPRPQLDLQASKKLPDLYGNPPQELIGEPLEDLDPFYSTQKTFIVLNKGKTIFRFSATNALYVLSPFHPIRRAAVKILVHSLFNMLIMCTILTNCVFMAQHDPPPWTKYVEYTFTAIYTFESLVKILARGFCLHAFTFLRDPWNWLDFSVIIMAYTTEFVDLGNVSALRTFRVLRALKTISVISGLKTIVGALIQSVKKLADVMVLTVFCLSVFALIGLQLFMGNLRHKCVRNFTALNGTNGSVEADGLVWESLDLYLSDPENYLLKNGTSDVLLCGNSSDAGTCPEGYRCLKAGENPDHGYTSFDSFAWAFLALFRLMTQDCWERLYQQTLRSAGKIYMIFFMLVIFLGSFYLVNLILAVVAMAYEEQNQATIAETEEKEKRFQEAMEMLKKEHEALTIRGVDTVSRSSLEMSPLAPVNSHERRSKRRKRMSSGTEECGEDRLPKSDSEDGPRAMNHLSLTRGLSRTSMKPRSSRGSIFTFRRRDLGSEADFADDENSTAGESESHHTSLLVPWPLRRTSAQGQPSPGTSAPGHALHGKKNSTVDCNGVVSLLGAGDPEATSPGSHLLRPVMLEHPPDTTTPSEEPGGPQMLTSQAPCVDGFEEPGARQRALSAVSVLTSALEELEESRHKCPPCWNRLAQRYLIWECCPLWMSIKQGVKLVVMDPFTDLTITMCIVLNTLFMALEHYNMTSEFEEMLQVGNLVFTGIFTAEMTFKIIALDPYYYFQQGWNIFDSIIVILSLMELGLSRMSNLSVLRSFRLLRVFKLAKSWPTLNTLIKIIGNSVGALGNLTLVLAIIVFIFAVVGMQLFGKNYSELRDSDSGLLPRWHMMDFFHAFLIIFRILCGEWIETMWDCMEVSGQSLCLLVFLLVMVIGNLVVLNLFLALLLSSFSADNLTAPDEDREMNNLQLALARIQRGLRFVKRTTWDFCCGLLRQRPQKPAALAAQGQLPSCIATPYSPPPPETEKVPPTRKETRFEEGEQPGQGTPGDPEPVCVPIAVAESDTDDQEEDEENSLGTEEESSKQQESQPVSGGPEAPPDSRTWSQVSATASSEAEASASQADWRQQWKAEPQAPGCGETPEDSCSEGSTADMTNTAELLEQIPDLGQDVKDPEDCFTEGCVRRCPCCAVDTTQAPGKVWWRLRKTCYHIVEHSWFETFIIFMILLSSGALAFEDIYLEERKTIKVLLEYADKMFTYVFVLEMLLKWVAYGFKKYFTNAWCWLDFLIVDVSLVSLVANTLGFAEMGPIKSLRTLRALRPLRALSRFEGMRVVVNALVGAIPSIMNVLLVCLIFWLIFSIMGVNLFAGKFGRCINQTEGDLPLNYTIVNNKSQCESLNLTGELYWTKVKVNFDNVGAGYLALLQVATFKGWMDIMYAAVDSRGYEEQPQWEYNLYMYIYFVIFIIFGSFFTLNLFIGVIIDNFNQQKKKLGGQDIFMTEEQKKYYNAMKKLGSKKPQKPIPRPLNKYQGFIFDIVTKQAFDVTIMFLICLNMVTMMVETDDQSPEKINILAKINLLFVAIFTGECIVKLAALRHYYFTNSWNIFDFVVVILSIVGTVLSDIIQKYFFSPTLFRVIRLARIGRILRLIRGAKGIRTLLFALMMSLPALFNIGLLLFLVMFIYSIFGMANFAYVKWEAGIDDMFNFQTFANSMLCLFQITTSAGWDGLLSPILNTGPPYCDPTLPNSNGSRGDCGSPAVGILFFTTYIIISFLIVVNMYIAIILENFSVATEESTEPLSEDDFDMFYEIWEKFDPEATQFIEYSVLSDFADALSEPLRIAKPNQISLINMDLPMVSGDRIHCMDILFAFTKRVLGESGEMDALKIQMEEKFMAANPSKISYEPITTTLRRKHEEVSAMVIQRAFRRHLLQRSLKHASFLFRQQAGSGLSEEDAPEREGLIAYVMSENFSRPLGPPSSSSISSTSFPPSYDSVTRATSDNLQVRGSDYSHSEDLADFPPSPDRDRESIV
Voltage-gated inwardly rectifying potassium channel KCNH2, sequence (Q12809 whole entry): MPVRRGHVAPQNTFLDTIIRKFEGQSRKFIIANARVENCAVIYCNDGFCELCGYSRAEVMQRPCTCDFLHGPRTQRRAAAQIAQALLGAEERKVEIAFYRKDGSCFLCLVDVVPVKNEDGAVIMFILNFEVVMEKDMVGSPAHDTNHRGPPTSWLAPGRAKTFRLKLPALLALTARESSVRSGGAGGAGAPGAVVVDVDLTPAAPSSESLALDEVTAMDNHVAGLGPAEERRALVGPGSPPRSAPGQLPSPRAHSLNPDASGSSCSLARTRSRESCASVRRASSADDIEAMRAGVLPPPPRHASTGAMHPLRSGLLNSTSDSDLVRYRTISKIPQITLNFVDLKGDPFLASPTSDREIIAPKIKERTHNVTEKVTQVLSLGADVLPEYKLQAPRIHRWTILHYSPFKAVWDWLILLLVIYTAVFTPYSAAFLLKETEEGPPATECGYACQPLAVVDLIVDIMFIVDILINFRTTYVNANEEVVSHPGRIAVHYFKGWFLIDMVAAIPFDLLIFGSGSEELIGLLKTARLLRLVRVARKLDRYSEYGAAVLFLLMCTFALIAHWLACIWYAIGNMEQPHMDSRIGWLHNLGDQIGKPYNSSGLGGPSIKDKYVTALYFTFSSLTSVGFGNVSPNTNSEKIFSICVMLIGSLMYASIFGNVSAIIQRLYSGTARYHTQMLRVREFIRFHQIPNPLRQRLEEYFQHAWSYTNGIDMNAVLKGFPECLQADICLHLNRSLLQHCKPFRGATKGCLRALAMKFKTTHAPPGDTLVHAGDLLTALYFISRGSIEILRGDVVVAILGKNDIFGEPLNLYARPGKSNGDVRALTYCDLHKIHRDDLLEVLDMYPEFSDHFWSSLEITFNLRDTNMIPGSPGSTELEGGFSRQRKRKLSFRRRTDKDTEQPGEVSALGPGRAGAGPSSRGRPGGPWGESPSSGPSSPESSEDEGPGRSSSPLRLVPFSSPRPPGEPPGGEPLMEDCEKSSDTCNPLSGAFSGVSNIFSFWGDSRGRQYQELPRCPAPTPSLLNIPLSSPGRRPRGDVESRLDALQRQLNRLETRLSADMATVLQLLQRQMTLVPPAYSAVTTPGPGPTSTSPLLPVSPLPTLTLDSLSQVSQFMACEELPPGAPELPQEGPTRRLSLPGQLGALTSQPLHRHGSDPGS

- IC50 [1]: 95 nM
Structure (SMILES): C[C@@H](O)[C@H](N)c1nc2cc(S(F)(F)(F)(F)F)ccc2[nH]1

- IC50 [1]: 31 nM
Structure (SMILES): CC(C)(C)c1ccc2[nH]c([C@H]3C[C@@H](O)CN3)nc2c1

- IC50 [1]: 534 nM
Structure (SMILES): C[C@@H](O)[C@H](N)c1nc2cc(C(F)(F)F)ccc2[nH]1

- IC50 [1]: 65 nM
Structure (SMILES): CC(C)(C)c1ccc2[nH]c([C@@](C)(N)CO)nc2c1

- IC50 [1]: 18 nM
Structure (SMILES): CO[C@H](C)[C@H](N)c1nc2cc(-c3ccc(C#N)cc3F)ccc2[nH]1

- IC50 [1]: 43 nM
Structure (SMILES): CC(C)(C)c1ccc2[nH]c([C@H]3CCCN3)nc2c1

- pKa [2]: 7
- Stability [4]: 2.5 µL/min
- Papp A→B [6]: 2.2 ×10⁻⁶ cm/s
- Stability [7]: < 11 µL/min
Structure (SMILES): C[C@@H](C(N)=O)[C@H](N)c1cn2cc(C(C)(C)C)ccc2n1
- IC50 [3]: > 10000 nM
- IC50 [5]: > 72000 nM

- IC50 [1]: 2570 nM
Structure (SMILES): CO[C@H](C)[C@H](N)c1nc2cc(OC(F)(F)F)ccc2[nH]1

- logD [8]: 2.1
- IC50 [9]: > 30000 nM
- IC50 [10]: > 30000 nM
- IC50 [11]: > 30000 nM
- IC50 [12]: > 30000 nM
- IC50 [13]: > 30000 nM
- AUC(0-inf) [14]: 962 ng·h/mL
- IC50 [15]: > 30000 nM
- pKa [2]: 5.9
- solubility [16]: 2000 µg/mL (≈ 7.29 mM)
- half-life [17]: 1.5 h
- CL free [18]: 214 mL/min/kg
- IC50 [19]: > 30000 nM
- Stability [4]: < 2 µL/min
- Vd [20]: 2.3 L/kg
- bioavailability [21]: 61%
- Papp A→B [6]: 3.5 ×10⁻⁶ cm/s
- IC50 [22]: > 30000 nM
- IC50 [23]: > 30000 nM
- clearance [24]: 40 mL/min/kg
- Stability [7]: < 11 µL/min
- IC50 [25]: > 30000 nM
- IC50 [1]: 15 nM
- IC50 [26]: > 30000 nM
- IC50 [27]: > 30000 nM
- IC50 [28]: > 30000 nM
- IC50 [29]: > 30000 nM
Structure (SMILES): C[C@@H](C(N)=O)[C@H](N)c1nc2ccc(C(C)(C)C)cc2[nH]1 [PF-06305591]
- IC50 [3]: > 30000 nM
- IC50 [5]: > 30000 nM

The next lines start with the compound.

Structure (SMILES): CCC[C@H](N)c1nc2cc(C(C)(C)C)ccc2[nH]1
- IC50 [1]: 2 nM

Structure (SMILES): C[C@H](O)[C@@H](N)c1nc2cc(-c3ccc(C#N)cc3)ccc2[nH]1
- IC50 [1]: 579 nM

Structure (SMILES): CO[C@H](C)[C@H](N)c1nc2cc(C(C)(C)C)ccc2[nH]1
- IC50 [1]: 24 nM

Structure (SMILES): CC(C)(C)c1ccc2ncc([C@@H](N)CO)nc2c1
- IC50 [1]: > 1000 nM

Structure (SMILES): CC(C)(C)c1ccc2nc([C@H](N)CO)cnc2c1
- IC50 [1]: > 1000 nM

Structure (SMILES): C[C@@H](O)[C@H](N)c1nc2cc(C(C)(C)C#N)ccc2[nH]1
- IC50 [1]: 728 nM

Structure (SMILES): CCCC(O)c1nc2cc(C(C)(C)C)ccc2[nH]1 (stereo not drawn)
- IC50 [1]: > 1000 nM

Structure (SMILES): CO[C@H](C)[C@H](N)c1nc2cc(-c3ccc(C#N)nc3)ccc2[nH]1
- IC50 [1]: 998 nM

Structure (SMILES): CC(C)(C)c1ccc2ncc([C@H](N)CO)nc2c1
- IC50 [1]: > 1000 nM

Structure (SMILES): CC(C)(C)c1ccc2nc([C@@H](N)CO)cnc2c1
- IC50 [1]: > 1000 nM

Structure (SMILES): CN[C@@H](CC(N)=O)c1nc2cc(C(C)(C)C)ccc2[nH]1
- IC50 [1]: 742 nM

Structure (SMILES): CC(C)c1ccc2[nH]c([C@@H](N)[C@@H](C)O)nc2c1
- IC50 [1]: 43 nM

Structure (SMILES): CC(C)(C)c1ccc2[nH]c(C(C)(C)N)nc2c1
- inhibition at 10 µM (Nav1.5 (SCN5A)): 12%
- IC50 [1]: 607 nM

Structure (SMILES): CCC(C)c1ccc2[nH]c([C@@H](N)CO)nc2c1 (stereo partly drawn)
- IC50 [1]: 708 nM

Structure (SMILES): CC1(c2ccc3[nH]c([C@@H](N)CO)nc3c2)CC1
- IC50 [1]: 593 nM
